Publication PMC12830207, “Targeting the protein–protein interaction between the CDC37 cochaperone and client kinases by an allosteric RAF dimer breaker” (The Journal of Biological Chemistry, 2025)

How the values were obtained:
BRAF–CDC37 interaction = experiment: NanoBiT luminescence CDC37–RAF interaction reporter assay, BRAF^SmBiT–CDC37^LgBiT; type: cell-based, human (HEK293)
Text: NanoBiT cytomegalovirus MCS BiBiT vector, which contains a BRAF N terminal fused with LgBiT and CRAF N terminal fused with SmBiT, was purchased from Promega. CDC37 LgBiT and CRAF SmBiT was generated using the standard Gibson Assembly (NEB HiFi Assembly) using NanoBiT BiBiT as the vector and following primers: 5′ […] 3′, 5′ […] 3′, 5′ […] 3′, 5′ […] 3′, and CDC37 LgBiT and BRAF SmBiT was generated using the standard Gibson Assembly using NanoBiT BiBiT as the vector and following primers: 5′ […] 3′, 5′ […] 3′, 5′ […] 3′, 5′ […] 3′. Primers were designed to introduce H20A, N22A, I23A triple mutation within the CDC37 FLAG tag and for NanoBiT construct CDC37(HNI/A) LgBit and BRAF SmBiT. Primers were designed to introduce the desired substitutions. The forward primer sequence was 5′ gccgcc[…] 3′, and the reverse primer sequence was 5′ gggggc[…] 3′. Site-directed mutagenesis was carried out using the Q5 Site-Directed Mutagenesis Kit (NEB; E0554) following the manufacturer's protocol.
Twenty-four hours post-transfection, cells were trypsinized, pelleted, resuspended in OptiMEM + 4% fetal bovine serum, and reseeded onto a 96-well plate at 5(10)^4 cells per well and then incubated at 37 °C overnight. Cells were pretreated with 1 μM bortezomib for 5 h and then braftide for 4 h at 0 and 25 μM. After treatment, 10 μM furimazine substrate was added to each well, and luminescence readings were taken at 470 to 480 nm using a CLARIOstar plate reader. Statistical significance was determined through a paired t test where indicated, followed by Tukey's honest significant difference post hoc test with corresponding p values (∗p < 0.05, ∗∗p < 0.01, and ∗∗∗p < 0.001). All graph bars represent the mean ± SD with individual data points per biological replicate with corresponding p values.

HEK293 cells = experiment: Annexin V apoptosis assay, HEK293; type: cell-based, human; conditions: 0, 5, 10, 25, 50, 75, and 100 μM braftide, 4 h, n = 3
Protocol: HEK293 cells and HCT116 cells were treated with either control or braftide at the indicated concentrations for 4 h. After treatment, both the floating and adherent cell populations were collected and adjusted with PBS (final concentration: 1 × 10^5 cells/ml). The cells were then mixed with the Annexin V (Cytex; FCCH100108) reagent in a 5:1 ratio (100 μl of cells mixed with 20 μl of Annexin V reagent) and allowed to stain in the dark, at room temperature for 15 min. The cells were then analyzed on a Guava Muse Cell Analyzer (Millipore).

CRAF = CRAF ubiquitination (IP of MBP-CRAF-FLAG, ubiquitin immunoblot); type: cell-based, human (HEK293); conditions: HEK293, MBP-CRAF-FLAG, 50 μM braftide, bortezomib pretreatment
Protocol: (§1) HEK293 cells were seeded at 1(10)^6 cells per well for a 6-well plate or 5(10)^6 for 10 cm dishes and incubated until 40% to 60% confluency. Transfection was carried out using a 1:3 DNA:PEI-MAX ratio in OPTI-MEM and allowed 48 h for protein expression. For peptide assays, 48 h post-transfection, cells were treated with TAT–braftide carried in OPTI-MEM at indicated concentrations. Cells were harvested in cold PBS. Harvested cells were lysed in 4% SDS or modified radioimmunoprecipitation assay (RIPA) for co-IP experiments. Quantification of total protein by the bicinchoninic acid assay was carried out according to the manufacturer's protocols (Pierce; catalog no.: 23225).
(§2) Transfected HEK293 cells were treated with the indicated treatments and harvested in cold PBS. […] Samples were analyzed via immunoblot.
(§3) Western blot band densities were quantified with ImageJ software (National Institutes of Health) and normalized to the indicated loading control. Statistical significance was determined through one-/two-way ANOVA, where indicated, followed by Tukey's honest significant difference post hoc test with corresponding p values (∗p < 0.05, ∗∗p < 0.002, ∗∗∗p < 0.0002, and ∗∗∗∗p < 0.0001). […]

[1] = test system: BRAF–CDC37/HSP90 chaperone complex; experiment: Co-IP of BRAF-FLAG with endogenous CDC37–HSP90 chaperone complex; type: cell-based, human (HEK293); conditions: HEK293, 50 μM braftide, 4 h, bortezomib pretreatment, three biological replicates
Protocol: as §1, §2, §3

CDC37–HSP90 interaction = experiment: Co-IP of CDC37-FLAG with HSP90 in HEK293; type: cell-based, human (HEK293); conditions: HEK293, 25 μM braftide, bortezomib pretreatment
Protocol: as §1, §2, §3

RAF kinase = conditions: in vitro and in cells; cited from earlier work
Text: The sequence of braftide mirrors the residues spanning the tail end of the αC helix and a region known as the αC helix–β4 loop, which includes three key residues: BRAF R509, L515, and M517, critical for RAF dimerization.

[2] = test system: MAPK proteins (BRAF, CRAF, MEK, pMEK, ERK, pERK); experiment: Immunoblot of MAPK proteins in HCT116 cells; type: cell-based
Protocol: Western blot band densities were quantified with ImageJ software (National Institutes of Health) and normalized to the indicated loading control. Statistical significance was determined through one-/two-way ANOVA, where indicated, followed by Tukey's honest significant difference post hoc test with corresponding p values (∗p < 0.05, ∗∗p < 0.002, ∗∗∗p < 0.0002, and ∗∗∗∗p < 0.0001). All graph bars represent the mean ± SD with individual data points per biological replicate with corresponding p values.

WM3629 cells = conditions: WM3629, reported; read-out: EC50, braftide, WM3629; cited from earlier work
Text: Based on the observed synergistic effects of inhibiting the ternary complex, the antiproliferative effects were explored using combinatorial treatment in two RAF-dimer–dependent cell lines: HCT116 and WM3629. HCT116 cells mainly rely on the wildtype BRAF–CRAF heterodimer and BRAF–BRAF homodimer to relay the MAPK signal, whereas WM3629 cells contain the BRAF D594G mutant, which is a kinase-dead mutant and depends on dimerization with CRAF for activation ([34]).

CDC37–CRAF interaction = experiment: Co-IP of CDC37-FLAG with CRAF-HA in HEK293; type: cell-based, human (HEK293); conditions: HEK293, 25 μM braftide, bortezomib pretreatment
Protocol: as §1, §2, §3

GRKKRRQRRRPQ-miniPEG-TRHVNILLFM [Braftide]
NanoBiT luminescence, BRAF^SmBiT–CDC37^LgBiT (BRAF–CDC37 interaction; HEK293, 25 μM braftide, 4 h, 1 μM bortezomib pretreatment 5 h, 10 μM furimazine, 470 to 480 nm): reduction in luminescence, reflecting a decrease in the CDC37–RAF interaction
protein levels of NanoBiT constructs (immunoblot control) (BRAF–CDC37 interaction; HEK293, braftide, bortezomib pretreatment, BRAF and CRAF constructs (Fig. 1, K and M)): protein levels remained the same with bortezomib pretreatment
apoptosis (Annexin V), HEK293 (HEK293 cells): triggers apoptosis
apoptosis (Annexin V), HEK293 (HEK293 cells; listed as braftide): triggered dose-dependent apoptosis
CRAF ubiquitination (CRAF): increased CRAF ubiquitination
association of BRAF with CDC37 and HSP90 [1]: reduced their association with CDC37 and HSP90 compared with the nontreated control
CDC37–HSP90 interaction (CDC37–HSP90 interaction): maintaining the CDC37–HSP90 interaction
RAF kinase activity (RAF kinase): inhibits RAF kinase activity
paradoxical activation induced by ATP-competitive inhibitors (RAF kinase): mitigates paradoxical activation induced by ATP-competitive inhibitors, both in vitro and in cells
inhibition by monotherapy at 500 nM ([2]; HCT116, 500 nM single agent, immunoblot): Neither 17-AAG nor braftide monotherapy exhibited obvious inhibition
MAPK pathway protein levels, proteomics samples ([2]; HCT116, 10 µM braftide, 1 hr, 37°C, n=3): decreases MAPK pathway protein levels
EC50 (WM3629 cells): 11.1 ± 1.12 µM
CDC37–CRAF complex (CDC37–CRAF interaction): reduced the CDC37–client BRAF–CRAF complex
